Measured values: BindingDB's records for doi:10.7270/Q28051GP (Universiti Teknologi Mara, 2017)

biological target: T1, Beta-glucuronidase (Homo sapiens, UniProt P08236); assay: β-Glucuronidase Assay
T1 sequence (P08236 whole entry): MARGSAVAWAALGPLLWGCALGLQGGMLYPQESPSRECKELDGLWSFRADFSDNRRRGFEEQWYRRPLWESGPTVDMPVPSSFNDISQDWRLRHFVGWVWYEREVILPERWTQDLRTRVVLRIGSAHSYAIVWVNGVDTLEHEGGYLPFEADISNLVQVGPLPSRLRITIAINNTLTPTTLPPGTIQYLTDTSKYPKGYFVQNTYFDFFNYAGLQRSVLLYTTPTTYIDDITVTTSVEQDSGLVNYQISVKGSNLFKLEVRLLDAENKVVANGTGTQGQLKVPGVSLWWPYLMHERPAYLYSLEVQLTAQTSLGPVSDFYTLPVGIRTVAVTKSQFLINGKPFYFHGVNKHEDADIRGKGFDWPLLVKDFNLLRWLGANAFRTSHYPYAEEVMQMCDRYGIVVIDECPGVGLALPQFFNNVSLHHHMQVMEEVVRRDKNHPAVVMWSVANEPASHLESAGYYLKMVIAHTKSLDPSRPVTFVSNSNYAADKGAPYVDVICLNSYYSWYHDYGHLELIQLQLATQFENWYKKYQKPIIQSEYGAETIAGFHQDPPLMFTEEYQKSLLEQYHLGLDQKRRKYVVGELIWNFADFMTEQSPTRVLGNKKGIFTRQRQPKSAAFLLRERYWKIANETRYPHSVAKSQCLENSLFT
Method: β-glucuronidase activity was determined in accordance to method used by Taha et al. [Taha et al., Bioorg. […] 250 μL was the volume of total reaction. Reaction mixture containing 5 μL of test compound solution, 185 μL of 0.1 M acetate buffer and 10 μL of enzyme solution were incubated for 30 min at 37 °C. […] To avoid precipitation, compound concentration was decreased and the volume of reaction was increased (200 μL). Precipitation probability was less thus addition of detergents was not needed.

SMILES | IC50
O=C(N/N=C/c1cccc(O)c1O)c1cc2cc(Cl)ccc2[nH]1 [(E)-5-chloro-N'-(2,3-dihydroxybenzylidene)-1H-indole-2-carbohydrazide (19)] | 13.4 µM
O=C(N/N=C/c1cc(O)ccc1O)c1cc2cc(Cl)ccc2[nH]1 [(E)-5-chloro-N'-(2,5-dihydroxybenzylidene)-1H-indole-2-carbohydrazide (23)] | 7.5 µM
COc1ccc(/C=N/NC(=O)c2cc3cc(Cl)ccc3[nH]2)c(O)c1 [(E)-5-chloro-N'-(2-hydroxy-4-methoxybenzylidene)-1H-indole-2-carbohydrazide (16)] | 21.5 µM
COc1ccc(O)c(/C=N/NC(=O)c2cc3cc(Cl)ccc3[nH]2)c1 [(E)-5-chloro-N'-(2-hydroxy-5-methoxybenzylidene)-1H-indole-2-carbohydrazide (6)] | 24.3 µM
O=C(N/N=C/c1ccccc1O)c1cc2cc(Cl)ccc2[nH]1 [(E)-5-chloro-N'-(2-hydroxybenzylidene)-1H-indole-2-carbohydrazide (26)] | 25.2 µM
O=C(N/N=C/c1ccc(O)c(O)c1)c1cc2cc(Cl)ccc2[nH]1 [(E)-5-chloro-N'-(3,4-dihydroxybenzylidene)-1H-indole-2-carbohydrazide (24)] | 14.6 µM
COc1ccc(/C=N/NC(=O)c2cc3cc(Cl)ccc3[nH]2)cc1O [(E)-5-chloro-N'-(3-hydroxy-4-methoxybenzylidene)-1H-indole-2-carbohydrazide (5)] | 22.5 µM
COc1ccc(/C=N/NC(=O)c2cc3cc(Cl)ccc3[nH]2)cc1 [(E)-5-chloro-N'-(4-methoxybenzylidene)-1H-indole-2-carbohydrazide (13)] | 53.6 µM
Cc1ccc(/C=N/NC(=O)c2cc3cc(Cl)ccc3[nH]2)cc1 [(E)-5-chloro-N'-(4-methylbenzylidene)-1H-indole-2-carbohydrazide (1)] | 43.5 µM
O=C(N/N=C/c1ccccn1)c1cc2cc(Cl)ccc2[nH]1 [(E)-5-chloro-N'-(pyridin-2-ylmethylene)-1H-indole-2-carbohydrazide (17)] | 22.8 µM
O=C(N/N=C/c1cccnc1)c1cc2cc(Cl)ccc2[nH]1 [(E)-5-chloro-N'-(pyridin-3-ylmethylene)-1H-indole-2-carbohydrazide (18)] | 44.5 µM
O=C(N/N=C/c1ccncc1)c1cc2cc(Cl)ccc2[nH]1 [(E)-5-chloro-N'-(pyridin-4-ylmethylene)-1H-indole-2-carbohydrazide (27)] | 42.4 µM
O=C(N/N=C/c1ccc(F)c(Br)c1)c1cc2cc(Cl)ccc2[nH]1 [(E)-N'-(3-bromo-4-fluorobenzylidene)-5-chloro-1H-indole-2-carbohydrazide (33)] | 14.4 µM
O=C(N/N=C/c1ccc(Cl)cc1)c1cc2cc(Cl)ccc2[nH]1 [(E)-N'-(4-chlorobenzylidene)-5-chloro-1H-indole-2-carbohydrazide (34)] | 37.2 µM
COC(=O)c1ccc(/C=N/NC(=O)c2cc3cc(Cl)ccc3[nH]2)cc1 [Methyl (E)-4-((2-(5-chloro-1H-indole-2-carbonyl)hydrazono)methyl)benzoate (15)] | 22.6 µM
